Where two headings read alike, the source gives them in different places.
Assays:
HIV‐2 [ROD)] = experiment: Anti-HIV activity, HIV-2 in thymidine kinase-deficient CEM/TK^− cells; type: cell-based
Procedure: (§1) Part 9. Anti-HIV activity assay.
(§2) The produce was used as previously reported. 5 Inhibition of HIV-1(IIIB)- and HIV-2(ROD)-induced cytopathogenicity in wild-type CEM/0 and thymidine kinase-deficient CEM/TK– cell cultures was measured in […]
(§3) containing appropriate dilutions of the test compounds. After 4−5 days of incubation at 37 °C in a CO2-controlled humidified atmosphere, CEM giant (syncytium) cell formation was examined microscopically. The […]
(§4) giant cell formation by 50%.
(§5) Part 10. Primer-extension assays. […]

HIV‐1 [HE] = experiment: Anti-HIV activity, HIV-1 in wild-type CEM/0 cells; type: cell-based; conditions: Human immunodeficiency virus 1, CCRF-CEM, read-out: Antiviral activity CEM/0 HIV‐1 [HE] EC50
HIV‐2 [ROD] = experiment: Anti-HIV activity, HIV-2 in wild-type CEM/0 cells; type: cell-based; conditions: Human immunodeficiency virus 2, CCRF-CEM, read-out: Antiviral activity CEM/0 HIV‐2 [ROD] EC50
Procedure: as §1, §2, §3, §4, §5

pig liver esterase (PLE) = experiment: Hydrolysis with pig liver esterase (PLE); type: in vitro ADME; conditions: pig liver esterase (PLE) in PBS, PLE in PBS pH 7.3, 37 °C, read-out: PLE t 1/2 (converted)
Excerpt: Next, TriPPPro‐compounds 10 and 20 were exposed to PLE in PBS (pH 7.3) and the half‐lives of TriPPPro‐compounds 10 and 20 are listed in Table 1. […] In contrast, the cleavage of the AB (C4) masking group in TriPPPro‐compounds 10by–hy and 10bz–hz was triggered by ester hydrolysis and yielded the corresponding γ‐alkylated nucleoside triphosphate derivatives 20 (Figure 3B,D) and 21 (Figures S17 and S18, Supporting Information), respectively. […] Moreover, a very small amount of NDPs was observed, probably due to a reaction involving a nucleophilic reaction at the γ‐phosphate or γ‐phosphonate moiety (pathways d and f, Scheme 5). […]
(§6) Part 4. Chemical Hydrolysis of TriPPPro-compounds 10 and 20.
Second prepare 1.9 mM hydrolysis
Part 5. Hydrolysis of TriPPPro-compounds 10 and 20 with PLE .
Second, 125 µL DMSO and 833 µL
62.5 µL of PLE solution in PBS (100
mixture was stored in the freezer (- 30 °C).
by analytical HPLC (HPLC Method).
similar to that for the chemical hydrolysis studies. […]
(§7) Then, aliquots of 50 µL human

in vitro [1] = conditions: human
Procedure: The hydrolysis properties of TriPPPro‐compounds 10 and 20 were evaluated in phosphate buffer saline (PBS, pH 7.3), pig liver esterase (PLE) or CEM/0 cell extracts. In both cases, hydrolysis products were analyzed by means of analytical RP18‐HPLC and the hydrolysis half‐lives (Table 1 , t1/2 ) of TriPPPro‐compounds 10 and 20 were calculated after complete consumption of the starting materials.
The hydrolysis of TriPPPro‐compounds 10 and 20 was carried out with CEM/0 cell extracts as well. […]
Part 6. Enzyme-Catalyzed Hydrolysis of TriPPPro-compounds 10 and 20 in CEM Cell […]
First prepare 3.0 mM hydrolysis solutions of Tri PPPro-compounds 10 and 20 in DMSO and H2O: 21 µL stock solution (50 mM in DMSO) and 154 µL DMSO, and 175 µL Milli-Q water. Three-twelve different samples (20 µL 3.0 mM hydrolysis solutions) were prepared in 2 mL Eppendorf® vials. Then, aliquots of 50 µL human CEM cell extracts were added to these samples and the reaction was started. The samples were incubated at 37 °C in a thermomixer for different time periods. The reaction was stopped by addition of 150 µL MeOH and kept on ice for 5 min. After centrifugation at 14,000 rpm for 12 min, the supernatants were filtered (Chromafil RC-20/15 MS, 0.2 μm) and stored in liquid nitrogen. When testing, aliquots of 60 µL (injection volume) were analyzed by analytical HPLC (HPLC Method). The calculation of t1/2 was obtained using Origin again.
Part 7. Hydrolysis of TriPPPro-compounds 10 and 20 in human plasma.
µL 3.0 mM hydrolysis solutions) were prepared in 2 mL Eppendorf® vials.

[2] = Chemical hydrolysis in phosphate buffer saline (PBS, pH 7.3); type: physicochemical; conditions: PBS pH 7.3, 37 °C, read-out: PBS pH 7.3 t 1/2 (converted)
Procedure: as §6
Second prepare 1.9 mM hydrolysis […]
as §7

in vitro [3] = conditions: human, CEM/0 cells (wild-type CD4+ T-cells)
Procedure: All TriPPPro‐compounds 10 and 20, as well as their parent nucleosides and the corresponding NTPs, were evaluated for their antiviral activity (expressed as EC50 values) against HIV‐1 (wild‐type CEM/0 cells) and HIV‐2 (wild‐type CEM/0 cells and thymidine kinase‐deficient (CEM/TK^−) cells) with concomitant determination of cytotoxicity in the same cell line (Table 3 ).

[4] = Human immunodeficiency virus 2, CEM-TK(-), thymidine kinase-deficient CEM/TK^− cells, mean ±SD n = 2–3; read-out: Antiviral activity CEM/TK^− HIV‐2 [ROD)] EC50
[5] = wild-type CEM/0 cells, mean ±SD n = 2–3

| SMILES | EC50 (HIV‐2 [ROD)]; Human immunodeficiency virus 2, CEM-TK(-), read-out: Antiviral activity CEM/TK^− HIV‐2 [ROD)] EC50) [µM] | EC50 (HIV‐1 [HE]) [µM] | EC50 (HIV‐2 [ROD]) [µM] | half-life at 0.45 mM (pig liver esterase (PLE)) [h] | half-life at 0.86 mM (in vitro [1]) [h] | half-life at 1.9 mM [2] [days] | CC50 (in vitro [3]) [µM] | EC50 (HIV‐2 [ROD)]; [4]) [µM] | EC50 (HIV‐1 [HE]; [5]) [µM] | EC50 (HIV‐2 [ROD]; [5]) [µM] |
| --- | --- | --- | --- | --- | --- | --- | --- | --- | --- | --- |
| CCCCCCCCCCCCCCCCCCP(=O)(OCCCC)OP(=O)(O)OP(=O)(O)OC[C@H]1O[C@@H](n2cc(C)c(=O)[nH]c2=O)C[C@@H]1N=[N+]=[N-] (stereo partly shown) [10bx] | 1.19 ± 0.79 | 0.12 ± 0.088 | 0.031 ± 0.005 | > 150 | > 20 | > 62.5 | > 100 | – | – | – |
| CCCCCCCCCCCCCCCCCCOP(=O)(OCCCC)OP(=O)(O)OP(=O)(O)OC[C@@H]1O[C@H](n2cc(F)c(N)nc2=O)CS1 (stereo partly shown) [10cv, γ‐(C4;C18)‐FTCTP] | – | – | – | > 150 | > 10 | > 83.3 | 51.2 ± 7.7 | 0.0032 | 0.039 ± 0.035 | 0.074 ± 0.027 |
| CCCCCCCCCCCCCCCCCCOP(=O)(OCc1ccc(OC(=O)CCCC)cc1)OP(=O)(O)OP(=O)(O)OC[C@@H]1O[C@H](n2cc(F)c(N)nc2=O)CS1 (stereo partly shown) [10cy, γ‐(AB‐C4;alkyl‐C18)‐FTCTP] | – | – | – | 0.24 | 3.4 | 10.5 | 51.9 | 0.062 ± 0.059 | 0.14 ± 0.065 | 0.18 ± 0.15 |
| CCCCCCCCCCCCCCCCCCOP(=O)(OCCCC)OP(=O)(O)OP(=O)(O)OC[C@H]1O[C@@H](n2cc(Cl)c(=O)[nH]c2=O)C[C@@H]1F (stereo partly shown) [10dv] | – | – | – | > 150 | > 20 | > 83.3 | 50.1 ± 10.2 | > 20 | 2.28 ± 0.68 | 4.81 ± 4.61 |
| CCCCCCCCCCCCCCCCCCOP(=O)(OCc1ccc(OC(=O)CCCC)cc1)OP(=O)(O)OP(=O)(O)OC[C@H]1O[C@@H](n2cc(Cl)c(=O)[nH]c2=O)C[C@@H]1F (stereo partly shown) [10dy] | – | – | – | 0.19 | 2.9 | 18.5 | 52.1 | 2.53 ± 1.38 | 7.32 ± 2.28 | 1.95 ± 0.86 |
| CCCCCCCCCCCCCCCCCCP(=O)(OCc1ccc(OC(=O)CCCC)cc1)OP(=O)(O)OP(=O)(O)OC[C@H]1O[C@@H](n2cc(Cl)c(=O)[nH]c2=O)C[C@@H]1F (stereo partly shown) [10dz] | – | – | – | 1.3 | > 10 | 27.9 | 54.9 | 4.66 ± 3.42 | 2.02 ± 0.8 | 0.51 ± 0.14 |
| CCCCCCCCCCCCCCCCCCOP(=O)(OCCCC)OP(=O)(O)OP(=O)(O)OC[C@H]1O[C@@H](n2cc(/C=C/Br)c(=O)[nH]c2=O)C[C@@H]1O (stereo partly shown) [10gv] | – | – | – | > 150 | > 10 | > 83.3 | 48 ± 4.2 | 36.5 ± 34.7 | > 10 | 5.37 ± 0.69 |
| CCCCCCCCCCCCCCCCCCOP(=O)(OCc1ccc(OC(=O)CCCC)cc1)OP(=O)(O)OP(=O)(O)OC[C@H]1O[C@@H](n2cc(/C=C/Br)c(=O)[nH]c2=O)C[C@@H]1O (stereo partly shown) [10gy] | – | – | – | 0.3 | – | 25 | 52.1 | 11.1 ± 1.34 | 8.57 ± 5.02 | 2.87 ± 1.72 |

— publication PMC10754118, “Lipophilic Nucleoside Triphosphate Prodrugs of Anti‐HIV Active Nucleoside Analogs as Potential Antiviral Compounds” (Advanced Science, 2023)
